Laboratory results from ChEMBL document CHEMBL1128035, “Structural optimization of alkyl-substituted 2-(7-5H-[1]benzopyrano[2,3-b]pyridyl)propionic acid as anti-inflammatory agents” (Bioorg Med Chem Lett, 1995).

Columns and labels:
[1] = Partition coefficient measured in n-octanol/ pH 7.4 phosphate buffer; format: physicochemical
[2] = biological target: T1, Prostaglandin G/H synthase 1 (Ovis aries, UniProt P05979); assay: Inhibitory activity against COX-1 from ram seminal vesicles
T1 sequence (P05979 whole entry): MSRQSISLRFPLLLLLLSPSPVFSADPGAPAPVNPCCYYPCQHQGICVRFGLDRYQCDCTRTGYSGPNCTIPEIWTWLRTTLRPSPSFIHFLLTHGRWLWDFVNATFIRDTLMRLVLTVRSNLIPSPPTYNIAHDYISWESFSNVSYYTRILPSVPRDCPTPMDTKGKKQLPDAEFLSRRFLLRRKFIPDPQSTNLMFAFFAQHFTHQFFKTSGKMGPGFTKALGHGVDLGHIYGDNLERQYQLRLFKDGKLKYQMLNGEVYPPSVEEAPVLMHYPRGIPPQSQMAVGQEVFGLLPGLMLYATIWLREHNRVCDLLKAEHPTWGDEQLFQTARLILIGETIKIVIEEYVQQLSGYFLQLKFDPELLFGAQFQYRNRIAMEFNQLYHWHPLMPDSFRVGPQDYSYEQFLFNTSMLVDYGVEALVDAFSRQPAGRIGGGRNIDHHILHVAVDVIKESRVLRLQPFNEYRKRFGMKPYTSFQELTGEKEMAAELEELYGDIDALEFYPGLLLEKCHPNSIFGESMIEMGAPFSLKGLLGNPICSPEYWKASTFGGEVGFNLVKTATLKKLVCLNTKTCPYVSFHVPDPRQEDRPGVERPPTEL

[3] = biological target: T2, Prostaglandin G/H synthase 1 (Rattus norvegicus, UniProt Q63921); assay: Inhibitory activity against COX-1 from rat peritoneal leukocytes, measured by PGE-2 produced (enzyme immunoassay)
T2 sequence (Q63921 whole entry): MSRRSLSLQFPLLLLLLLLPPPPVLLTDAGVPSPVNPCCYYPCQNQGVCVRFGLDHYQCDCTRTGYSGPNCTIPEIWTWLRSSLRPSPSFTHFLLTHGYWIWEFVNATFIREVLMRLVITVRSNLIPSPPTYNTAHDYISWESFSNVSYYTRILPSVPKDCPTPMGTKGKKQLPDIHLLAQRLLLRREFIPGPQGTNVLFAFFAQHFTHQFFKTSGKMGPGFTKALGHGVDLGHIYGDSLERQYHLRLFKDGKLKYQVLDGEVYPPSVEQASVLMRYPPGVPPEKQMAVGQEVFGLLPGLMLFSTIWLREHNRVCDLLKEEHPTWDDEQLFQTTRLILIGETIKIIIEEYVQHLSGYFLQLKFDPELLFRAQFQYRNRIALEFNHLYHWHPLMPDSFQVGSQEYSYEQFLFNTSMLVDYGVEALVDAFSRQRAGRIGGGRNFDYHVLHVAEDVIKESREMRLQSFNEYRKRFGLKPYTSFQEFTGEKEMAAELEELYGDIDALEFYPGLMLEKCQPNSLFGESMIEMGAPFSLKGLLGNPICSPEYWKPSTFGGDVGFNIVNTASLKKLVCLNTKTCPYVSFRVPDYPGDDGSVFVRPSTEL

| Structure (SMILES) | logD [1] | IC50 [2] | IC50 [3] |
| --- | --- | --- | --- |
| CCc1ccc2c(n1)Oc1ccc(C(C)C(=O)O)cc1C2 (configuration not stated) | 0.45 | 850 nM | 110 nM |
| CC(C(=O)O)c1ccc2c(c1)Cc1cccnc1O2 (configuration not stated) [PRANOPROFEN] | -0.72 | 3100 nM | 390 nM |
| Cc1cnc2c(c1)Cc1cc(C(C)C(=O)O)ccc1O2 (configuration not stated) | 0.03 | 11000 nM | – |
| CC(C)c1ccc2c(n1)Oc1ccc(C(C)C(=O)O)cc1C2 (configuration not stated) | 0.67 | > 100000 nM | – |
| CCCc1ccc2c(n1)Oc1ccc(C(C)C(=O)O)cc1C2 (configuration not stated) | 1.08 | > 100000 nM | – |

Further lines, results first:

| logD [1] | IC50 [2] | IC50 [3] | Structure (SMILES) |
| --- | --- | --- | --- |
| -0.17 | > 100000 nM | – | Cc1ccnc2c1Cc1cc(C(C)C(=O)O)ccc1O2 (configuration not stated) |
| -0.11 | 320 nM | 30 nM | Cc1ccc2c(n1)Oc1ccc(C(C)C(=O)O)cc1C2 (configuration not stated) |
